Values of other authors as cited in patent publication US11369617B2, “Prostacyclin analogue formulations” (CAMURUS AB, priority 2016, dated 2022).

Conditions: regular s.c. administration

administration-site pain, patients experiencing it: 85 % of patients
SMILES: CCCCC[C@H](O)CC[C@@H]1[C@H]2Cc3cccc(OCC(=O)O)c3C[C@H]2C[C@H]1O [treprostinil]
withdrawals due to adverse events (almost all due to site pain): 23 % of the long-term study population
